Data on nine compounds can be found in patent publication US20240376085A1 (Janssen Pharmaceutica NV, priority 2021, published 2024).

Test [1] addresses T1, IL-17A : IL-17RA binding (Homo sapiens, UniProt Q16552, K93Q).
T1 construct: Name: IL-17A-Flag
The experiment in a line: IL-17A(FLAG-tagged):IL-17RA(His-tagged) binding disruption Eu-HTRF assay, Protocol 1. To be noted: FLAG-IL-17A 2.5 nM at 2x final concentration; average if tested more than once. The procedure, abridged:
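IC50 came from a one-site competition fit of the acceptor/donor (665/620 nm) HTRF ratio. His-tagged IL-17RA, Eu-anti-FLAG and D2-anti-His were added after a 1 h rt compound preincubation with FLAG-tagged IL-17A dimer in PBS/0.01% Triton X-100, followed by 2 h at rt before reading.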
Background: Time-resolved FRET reads energy transfer from a long-lived donor to a nearby acceptor.

In test [2] the test system is IL-17A-induced G-CSF production in human normal keratinocyte (NHK). The experiment in a line: NHK assay: IL-17A-induced G-CSF production in normal human keratinocytes. Format: cell-based. To be noted: Homo sapiens, Keratinocyte, 24 h, IL-17A 5 ng/mL, average if tested more than once. The procedure, abridged:
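Stimulus rhIL-17A 5 ng/mL final, premixed 1 h rt with compound; adult NHK, 5% FBS, 0.2% DMSO. Viability by CellTiter-Glo vs DMSO.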

Structures are written as SMILES. A value given as a limit tells only on which side of the number the result lay.

T1 sequence (Q16552 with tags, fused parts or gaps K93Q): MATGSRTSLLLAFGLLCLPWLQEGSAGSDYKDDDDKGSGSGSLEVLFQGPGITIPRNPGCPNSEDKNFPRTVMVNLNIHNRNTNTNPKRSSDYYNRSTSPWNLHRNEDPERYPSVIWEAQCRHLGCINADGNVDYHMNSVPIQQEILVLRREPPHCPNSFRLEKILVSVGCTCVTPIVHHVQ

What is called IC50 is the midpoint of a concentration-inhibition curve. For the compound `CC(C)c1ocnc1C(=O)N[C@H](c1nc2cc([C@@H](C)NC(=O)CCC(F)(F)F)ccc2[nH]1)C1CCC(F)(F)CC1` [Example 207, N—((S)-(4,4-Difluorocyclohexyl)(5-((R)-1-(4,4,4-trifluorobutanamido)ethyl)-1H-benzo[d]imidazol-2-yl)methyl)-5-isopropyloxazole-4-carboxamide], the concentration for half-maximal inhibition (IC50) is 50 to 100 nM in test [1] and > 100 nM in test [2].

On to `CCc1nonc1C(=O)N[C@@H](CC(C)(C)C(F)(F)F)c1nc2cc([C@@H](NC(=O)CCC(F)(F)F)C3CC3)ccc2[nH]1` (relative stereo) [Example 189, N—((S*)-1-(5-((S*)-Cyclopropyl(4,4,4-trifluorobutanamido)methyl)-1H-benzo[d]imidazol-2-yl)-4,4,4-trifluoro-3,3-dimethylbutyl)-4-ethyl-1,2,5-oxadiazole-3-carboxamide], for which the IC50 in test [1] and in test [2] was > 100 nM each time.

As to `C[C@@H](NC(=O)CCC(F)(F)F)c1ccc2[nH]c([C@@H](NC(=O)c3cnnn3CCOC(F)F)C3CCC(F)(F)CC3)nc2c1` [Example 34, N—[(S)-(4,4-Difluorocyclohexyl)-[6-[(1R)-1-(4,4,4-trifluorobutanoylamino)ethyl]-1H-benzimidazol-2-yl]methyl]-3-[2-(difluoromethoxy)ethyl]triazole-4-carboxamide], the IC50 in test [1] was > 100 nM; in test [2] it was 50 to 100 nM.

Regarding `C[C@@H](NC(=O)CCC(F)(F)F)c1ccc2[nH]c([C@@H](NC(=O)c3cnnn3CC3CC3)C3CCC(F)(F)CC3)nc2c1` [Example 9, 3-(Cyclopropylmethyl)-N—[(S)-(4,4-difluorocyclohexyl)-[6-[(1R)-1-(4,4,4-trifluorobutanoylamino)ethyl]-1H-benzimidazol-2-yl]methyl]triazole-4-carboxamide], the IC50 in test [1] and in test [2] was > 100 nM in each case.

As to `C[C@@H](NC(=O)CCC(F)(F)F)c1ccc2[nH]c([C@@H](NC(=O)c3ncnn3C)C3CCC(F)(F)CC3)nc2c1` [Example 31, N—[(S)-(4,4-Difluorocyclohexyl)-[6-[(1R)-1-(4,4,4-trifluorobutanoylamino)ethyl]-1H-benzimidazol-2-yl]methyl]-2-methyl-1,2,4-triazole-3-carboxamide], the concentration for half-maximal inhibition (IC50) in test [1] and in test [2] was > 100 nM throughout.

In the case of `CC(C)c1nocc1C(=O)N[C@H](c1nc2cc([C@@H](C)NC(=O)CCC(F)(F)F)ccc2[nH]1)C1CCC(F)(F)CC1` [Example 204, N—((S)-(4,4-Difluorocyclohexyl)(5-((R)-1-(4,4,4-trifluorobutanamido)ethyl)-1H-benzo[d]imidazol-2-yl)methyl)-3-isopropylisoxazole-4-carboxamide], the IC50 in test [1] and in test [2] was < 50 nM each time.

Take `C[C@@H](NC(=O)CCC(F)(F)F)c1ccc2[nH]c([C@@H](NC(=O)c3coc(CCC(F)(F)F)n3)C3CCC(F)(F)CC3)nc2c1` [Example 225, N—((S)-(4,4-Difluorocyclohexyl)(5-((R)-1-(4,4,4-trifluorobutanamido)ethyl)-1H-benzo[d]imidazol-2-yl)methyl)-2-(3,3,3-trifluoropropyl)oxazole-4-carboxamide]: the half-inhibitory concentration (IC50) in test [1] and in test [2] was > 100 nM in each case.

Take `CCC(NC(=O)CCC(F)(F)F)c1ccc2[nH]c([C@@H](NC(=O)c3ccnn3C)C3CCC(F)(F)CC3)nc2c1` (single isomer, unassigned) [Example 52, N—((S)-(4,4-Difluorocyclohexyl)(5-((S*)-1-(4,4,4-trifluorobutanamido)propyl)-1H-benzo[d]imidazol-2-yl)methyl)-1-methyl-1H-pyrazole-5-carboxamide]: the IC50 in test [1] and in test [2] was > 100 nM each time.

As to `C[C@@H](NC(=O)CCC(F)(F)F)c1ccc2[nH]c([C@@H](NC(=O)C3(F)CC3)C3CCC(F)(F)CC3)nc2c1` [Example 96, N—((S)-(4,4-Difluorocyclohexyl)(5-((R)-1-(4,4,4-trifluorobutanamido)ethyl)-1H-benzo[d]imidazol-2-yl)methyl)-1-fluorocyclopropane-1-carboxamide], the concentration for half-maximal inhibition (IC50) in test [1] and in test [2] was > 100 nM throughout.
